Experimental data from patent US4048299A, “Anticaries confectionaries and oral health products” (William Wrigley, Jr. Co., priority 1970, dated 1977).
Where two headings read alike, the source gives them in different places.

Assays:
[1] = system: Lactobacillus casei and Streptococcus sp. FA-1; assay: Acid-production inhibition by broth-tube assay, 0.1 percent of compound; format: cell-based; conditions: for inhibition at 0.1 %: read-out: Activity, Acid-Production Inhibition%
Experimental: ^(a) Activity was measured by broth-tube assay to determine percent
(§1) acid-production inhibition obtained by Lactobacillus casei and
Streptococcus sp. FA-1 in the presence of 0.1 percent of compound.
^(a) Activity was measured by broth-tube assay to determine percent o
as §1
Streptococcus sp. FA-1 in the presence of 0.1% of compound. Symbols

[2] = system: oral microorganisms; assay: Growth inhibition in vitro (summary); format: cell-based; conditions: in words, summary of tables
Experimental: (§2) Other in vitro evaluations utilized a broth tube analysis of representative anticaries aldehydes incorporated in the vehicles of this invention against cultures of acid producing microorganisms normally present in the mouth. Standard laboratory procedures were utilized throughout to evaluate the acid production inhibition and growth inhibition over the incubation time of up to 24 hours.

[3] = system: Lactobacillus casei; assay: Acid production inhibition, broth-tube technique; conditions: Table XI, emulsion with 4 parts Tween 20
Text: (§13) The data was compiled through well-known broth tube analysis techniques.

[4] = system: Streptococcus sp. GS-5; assay: Acid production inhibition, broth-tube technique; format: cell-based; conditions: Table XI, emulsion with 4 parts Tween 20
Experimental: (a)2,4-Hexadienal was prepared as an emulsion with 4 parts of Tween 20.

[5] = system: Streptococcus sp. FA-1; assay: Acid production inhibition, broth-tube technique; conditions: Table XI, emulsion with 4 parts Tween 20
Text: as §13

[6] = system: oral microorganisms; assay: Acid production inhibition in vitro (summary); format: cell-based; conditions: in words, summary of tables
Experimental: as §2

[7] = system: L. casei; assay: Growth inhibition of oral microorganisms in vitro, pour plates; format: cell-based, Lactobacillus casei; conditions: Table IX; for Bacterial Population, Experimental: control 8 × 10^8 to 1 × 10^9; for Inhibition (growth): pour plates incubated 48 - 72 hours
Experimental: (§3) (a)Determined on freshly grown pure cultures. Pour plates were incubated

[8] = system: Streptococcus spp. FA-1; assay: as above; format: cell-based; conditions: Table IX; for Bacterial Population, Experimental: control 2 × 10^8 to 5 × 10^8; for Inhibition (growth): pour plates incubated 48 - 72 hours
Experimental: as §3

[9] = In vivo caries evaluation, Osborne-Mendel strain 2 rat; parameters: species or system rat (Osborne-Mendel strain 2); Caries Score, Mean Incidence / Caries Score, Mean Extent: scale not given here; conditions: Table II, 90 days; for Caries Score, Mean Incidence / Caries Score, Mean Extent: 1 percent in diet; for Caries Score, Mean Incidence: L2000 control 17.4; for Caries Score, Mean Extent: L2000 control 31.3; for Caries Extent Reduction, statistical evaluation / Caries Incidence Reduction, statistical evaluation: Student's test, 95 percent confidence limit
Text: (§4) Standard laboratory techniques were used to complie the data presented. In each case the aldehyde was incorporated into each specimen's food in a one percent, by weight, quantity, over a period of several weeks. In all cases, caries reduction was noted.
(§5) The aldehydes tested in vivo were pyruvaldehyde, d,1-glyceraldehyde, crystalline dimer, glycolaldehyde, octanaldehyde, nonanaldehyde, decanaldehyde, undecylenic aldehyde, and lauric aldehyde. The polyaldehydes tested were dialdehyde starch, dialdehyde starch 50 percent oxidized, dialdehyde starch 90 percent oxidized, and dialdehyde galactomannan gum.
(§6) ^(a) Agents were incorporated in the diet at a 1 percent level.

[10] = system: Mixed human oral microorganisms; assay: Acid production inhibition by aldehydes in product vehicles, broth-tube technique; format: cell-based; conditions: in tooth powder (aqueous extract), 1 to 5 percent aldehyde
Experimental: as §2
(§7) (a)Measured by broth-tube technique.
(§8) In formulating Tables XIII - XIX representative aldehydes having anticaries activity were selected from those tested as summarized in Tables I - XII and incorporated in seven representative types of products. The products included dextrose and sucrose syrups, obtained commercially in food grades, and compressed candy, hard candy, mouthwash, toothpaste and toothpowder. The five latter products also employed food grade and reagent grade ingredients. These products were formulated by well-known and representative recipes for each type of product. The products were formed in batches of approximately 1 pound or 1 liter and contained all their normal constitutents. Aliquots of each products were blended with one of each of the representative aldehydes selected except in the case of hard candy.
(§9) Aliquots of the aldehyde incorporating sugar syrups, confectioneries, and mouthwash formulations were added directly to assay flasks and mixed or dissolved as required. Aqueous extracts of the aldehyde incorporated in toothpaste and toothpowder were prepared and aliquots of the filtrate were added to the assay flasks.
(§10) The assay flasks contained the necessary components for a normal growth response from the organisms employed, Lactobacillus casei ATCC 4646, originally a human oral isolate, Streptococcus spp. K1-R, human caries isolate, and a mixed oral microbial population obtained fresh from saliva on the morning prior to the initiation of each assay incubation period. The assay flask medium was dissolved in distilled water in which was added an equal volume of filter sterilized human saliva to yield a 50 percent saliva-medium combination. The medium contained all normal ingredients such as yeast extract, proteose peptone number 3 (a proprietary formula of Difco Laboratories, Detroit, Michigan) monopotassium phosphate, Tween 80 (polyoxethylene sorbitan monoleate) and water, except a carbon source. This was supplied by the aliquot of the sucrose syrup, dextrose syrup, sucrose in the compressed candy tablet and sucrose in the hard candy product. In addition, an aliquot of sucrose solution concentrate was added to the assay flask as a carbon source for evaluation of mouthwash, toothpaste, and toothpowder vehicles.
(§11) The lower aldehydes such as glycolaldehyde, crystalline dimer; pyruvaldehyde, aqueous syrup; d,1-glyceraldehyde solution and crystalline dimer; and glutaraldehyde, employed as a 50 percent aqueous solution, are water soluble and were employed directly either as powders or aqueous solutions. The C8 to C12, longer chain aliphatic aldehydes, of which decyl and dodecyl (lauric) were selected as representative, are oil soluble and are prepared and added to the products as emulsions with four parts of Tween 20, polyoxethylene sorbitan monolaurate. The aldehyde concentrations in the products were randomly chosen between 1 to 5 percent by weight. Limits for the concentrations were selected to coincide with the data presented in Tables I - XII in order to verify that the anticaries activity of the aldehydes in the product vehicles tested was equivalent to the activity previously established for the aldehydes alone.

[11] = system: Streptococcus spp. KI-R; assay: as above; format: cell-based; conditions: in tooth powder (aqueous extract), 1 to 5 percent aldehyde
Experimental: as §2, §7, §8, §9, §10, §11

[12] = system: Lactobacillus casei ATCC 4646; assay: as above; format: cell-based; conditions: in tooth powder (aqueous extract), 1 to 5 percent aldehyde
Experimental: as §2, §7, §8, §9, §10, §11

[13] = system: Mixed human oral microorganisms; assay: Growth inhibition by aldehydes in product vehicles, pour-plate technique; format: cell-based; conditions: in tooth powder (aqueous extract), 1 to 5 percent aldehyde
Experimental: as §2
(§12) (b)Measured by pour-plate technique.
as §8, §9, §10, §11

[14] = system: Streptococcus spp. KI-R; assay: as above; format: cell-based; conditions: in tooth powder (aqueous extract), 1 to 5 percent aldehyde
Experimental: as §2, §12, §8, §9, §10, §11

[15] = system: Lactobacillus casei ATCC 4646; assay: as above; format: cell-based; conditions: in tooth powder (aqueous extract), 1 to 5 percent aldehyde
Experimental: as §2, §12, §8, §9, §10, §11

[16] = In vivo caries evaluation, laboratory animals (summary); conditions: one percent level in diet
Text: as §4, §5

[17] = In vivo caries evaluation, albino hamster; conditions: Table II, 59 days
Text: as §4, §5, §6

[18] = In vivo caries evaluation, Osborne-Mendel strain 1 rat; parameters: species or system rat (Osborne-Mendel strain 1); Caries Score, Mean Incidence / Caries Score, Mean Extent: scale not given here; conditions: Table II, 90 days
Text: as §4, §5, §6

[19] = Table X, 0.1 percent of compound
[20] = Student's test, 95 percent confidence limit

Structure (SMILES): CC=CC=CC=O [2,4-Hexadienal]
- Activity, Acid-Production Inhibition, % ([1]; Table XII, 0.1% of compound): ++++ (99 to 100)
- Growth Inhibition [2]: little or no growth inhibition
- Inhibition of Acid Production ([3]; 0.01 percent): 27%
- Inhibition of Acid Production ([3]; 0.025 percent): 43%
- Inhibition of Acid Production ([3]; 0.05 percent): 88%
- Inhibition of Acid Production ([3]; 0.075 percent): 94%
- Inhibition of Acid Production ([3]; 0.10 percent): 98%
- Inhibition of Acid Production ([4]; 0.01 percent): 8%
- Inhibition of Acid Production ([4]; 0.025 percent): 35%
- Inhibition of Acid Production ([4]; 0.05 percent): 97%
- Inhibition of Acid Production ([4]; 0.075 percent): 99%
- Inhibition of Acid Production ([4]; 0.10 percent): 100%
- Inhibition of Acid Production ([5]; 0.01 percent): 31%
- Inhibition of Acid Production ([5]; 0.025 percent): 92%
- Inhibition of Acid Production ([5]; 0.05 percent): 99%
- Inhibition of Acid Production ([5]; 0.075 percent): 99%
- Inhibition of Acid Production ([5]; 0.10 percent): 100%
- Acid Production Inhibition [6]: excellent acid production inhibition

Structure (SMILES): CCCC=CC=O [2-Hexene-1-al]
- Bacterial Population, Experimental [7]: 8 × 10^8
- Inhibition (growth) [7]: Insignificant
- inhibition at 0.1 % [1]: 90 to 98%
- Growth Inhibition [2]: little or no growth inhibition
- Bacterial Population, Experimental [8]: 9 × 10^7
- Inhibition (growth) [8]: Insignificant
- Acid Production Inhibition [6]: excellent acid production inhibition

Structure (SMILES): CCCCCCCCCCCC=O [Lauric aldehyde]
- Bacterial Population, Experimental [7]: < 1 × 10^2
- Inhibition (growth) [7]: > 99.99%
- inhibition at 0.1 % [1, 19]: 99 to 100%
- Bacterial Population, Experimental [8]: 0
- Inhibition (growth) [8]: 100%
- Caries Score, Mean Incidence [9]: 10.0
- Caries Score, Mean Extent [9]: 15.6
- Caries Extent Reduction, statistical evaluation [9]: Significant
- Caries Incidence Reduction, statistical evaluation [9]: Significant
- Acid Production Inhibition ([10]; 2 h incubation): 33 Per cent
- Acid Production Inhibition ([10]; 5 h incubation): 96 Per cent
- Acid Production Inhibition ([10]; 24 h incubation): 0 Per cent
- Acid Production Inhibition ([11]; 2 h incubation): 0 Per cent
- Acid Production Inhibition ([11]; 5 h incubation): 0 Per cent
- Acid Production Inhibition ([11]; 24 h incubation): 0 Per cent
- Acid Production Inhibition ([12]; 2 h incubation): 0 Per cent
- Acid Production Inhibition ([12]; 5 h incubation): 0 Per cent
- Acid Production Inhibition ([12]; 24 h incubation): 93 Per cent
- Growth Inhibition ([13]; 2 h incubation): 99.8 Per cent
- Growth Inhibition ([13]; 5 h incubation): 99.6 Per cent
- Growth Inhibition ([13]; 24 h incubation): N.S.
- Growth Inhibition ([14]; 2 h incubation): 99.2 Per cent
- Growth Inhibition ([14]; 5 h incubation): > 99.99 Per cent
- Growth Inhibition ([14]; 24 h incubation): 100 Per cent
- Growth Inhibition ([15]; 2 h incubation): 99.5 Per cent
- Growth Inhibition ([15]; 5 h incubation): > 99.99 Per cent
- Growth Inhibition ([15]; 24 h incubation): 99.99 Per cent
- Anticaries effect in laboratory animals [16]: significant anticaries activity

Structure (SMILES): CCCCCCCC=O [Octanaldehyde]
- Caries Score, Mean Incidence ([17]; 1 percent in diet, L2000 control 39.3): 18.6
- Caries Score, Mean Extent ([17]; 1 percent in diet, L2000 control 117.6): 53.8
- Caries Extent Reduction, statistical evaluation [17, 20]: Significant
- Caries Incidence Reduction, statistical evaluation [17, 20]: Significant
- Bacterial Population, Experimental [7]: 2 × 10^7
- Inhibition (growth) [7]: 97%
- inhibition at 0.1 % [1, 19]: 99 to 100%
- Bacterial Population, Experimental [8]: 9 × 10^3
- Inhibition (growth) [8]: > 99.99%
- Caries Score, Mean Incidence [9]: 2.9
- Caries Score, Mean Extent [9]: 4.1
- Caries Extent Reduction, statistical evaluation [9]: Significant
- Caries Incidence Reduction, statistical evaluation [9]: Significant
- Caries Score, Mean Incidence ([18]; 1 percent in diet, RCD control 19.0 (octan-), 14.1 (nonan-), 17.6 (decan-), 22.3 (undecylenic)): 9.8
- Caries Score, Mean Extent ([18]; 1 percent in diet, RCD control 49.6 (octan-), 34.3 (nonan-), 46.0 (decan-), 54.6 (undecylenic)): 20.4
- Caries Extent Reduction, statistical evaluation [18, 20]: Significant
- Caries Incidence Reduction, statistical evaluation [18, 20]: Significant
- Anticaries effect in laboratory animals [16]: significant anticaries activity

Structure (SMILES): CCCCCCC=O [n-Heptaldehyde]
- Bacterial Population, Experimental [7]: 1 × 10^9
- Inhibition (growth) [7]: None
- inhibition at 0.1 % [1, 19]: 75 to 89%
- Growth Inhibition [2]: little or no growth inhibition
- Bacterial Population, Experimental [8]: 3 × 10^8
- Inhibition (growth) [8]: Insignificant
- Acid Production Inhibition [6]: excellent acid production inhibition

Structure (SMILES): CCCCCC=O [n-Hexaldehyde]
- Bacterial Population, Experimental [7]: 1 × 10^9
- Inhibition (growth) [7]: None
- inhibition at 0.1 % [1, 19]: 25 to 74%
- Growth Inhibition [2]: little or no growth inhibition
- Bacterial Population, Experimental [8]: 4 × 10^8
- Inhibition (growth) [8]: Insignificant
- Acid Production Inhibition [6]: excellent acid production inhibition
